# Experimental data taken from patent US12673014B2, “Inhibitors of glycosphingolipid synthesis and methods of use” (priority 2018, dated 2026).
# Key:
# Format in all cases: in vivo, mouse
# [1] = test system: glucosylceramide synthase (UCGC); assay: q-RT-PCR mRNA mass in skin tissue; details: placebo vs D-PDMP fed ApoE-/- mice (data not shown)
# LacCer synthase (GalT-V) = assay: q-RT-PCR mRNA mass in skin tissue; details: placebo vs D-PDMP fed ApoE-/- mice (data not shown)
# Description: Analysis of gene expression by quantitative Real-Time PCR: A ~50-mg piece of skin tissue was homogenized from each mice and total RNA was isolated using TRIsol reagent according to the manufacturer's instructions (Invitrogen, Camarillo, CA). Two microgram of RNA were reverse transcribed with SuperScript II using random primers. The primer sequence for GalT-V were as follows:
# The primers were synthesized by Integrated DNA Technologies (Coralville, USA). Real time PCR were performed using SYBR Green PCR Master Mix PCR Master Mix (applied Biosystems, Foster City, CA, USA) in an Applied Biosystems Step one Real time PCR system as described previously^52. Data were normalized to GAPDH mRNA levels. Expression suite software (Applied Biosystems) was used to analyze the data.
# B1-4GalT-V = assay: GalT-V mass in skin tissue by ELISA, ApoE-/- mice fed western diet
# Description: Measurement of B1-4GalT-V mass in skin tissue: Here, about 10-mg skin tissue was homogenized in RIPA buffer and centrifuged at 10,000 rpm. The mass of GalT-V was measured in the supernatant fraction using an ELISA assay. About 100-μg of each protein sample (in triplicate) was loaded in 96-well, medium-binding, clear flat bottom polystyrene ELISA plates (Immulux, Chantilly VA)-total volume adjusted to 100 μL with bicarbonate buffer (50 mM Na2CO3—NaHCO3). […] This antibody specifically recognizes human, mouse and rat tissue B4GalT-V. Moreover, this interaction can be inhibited by large volumes of the GalT-V peptide but not other proteins or scrambled peptide. After overnight incubation at 4 C, 200 μL of blocking buffer (1% bovine serum albumin/phosphate buffered saline) was added and incubation continued overnight. […] C., followed by incubation for 1-hr at 37 deg. C. with a horseradish peroxidase-conjugated IgG (Sigma) secondary antibody. Finally, 100-μL of TMB solution was added, and after 10 min incubation at 37° C., absorbance was measured at 450 nm.
# [2] = test system: skin glycosphingolipids (ceramide, monohexosylceramide, lactosylceramide); assay: Skin glycosphingolipids by LC-ESI/MS/MS in ApoE-/- mice fed western diet
# From the text: Sample preparation: Glycosphingolipid molecular species were extracted according to a modified Bligh and Dyer procedure^55 Briefly, about 50-mg of each tissue sample was homogenized with 10 volumes of HPLC water at room temperature, followed by addition of 30 volumes methanol solution containing ammonium formate and d18:1/C12:0 ceramide as an internal standard (Avanti Polar Lipids, Alabaster, Alabama). The mixture was vortexed (Vortex-Genie, Model G560, Scientific Industries, Bohemia, NY), and 40 volumes of chloroform added. The mixture was vortexed again and centrifuged (Eppendorf centrifuge #5424) at 1,000 g for 10 minutes. The chloroform (bottom layer) was separated and dried using a Savant™ SPD131 SpeedVac (Thermo Scientific, Pittsburgh, PA, USA). Dried extracts were resuspended in pure methanol and sealed and stored at −80° C. until analysis by LC-ESI/MS/MS, as described previously^30-40.
# [3] = test system: ApoE−/− mice fed a western diet; assay: Skin and hair phenotype (hair discoloration, hair loss, skin inflammation, wounds) in ApoE-/- mice fed western diet
# From the text: Male, 11-week-old apolipoprotein E-deficient (ApoE−/−) mice were purchased from Jackson Labs (Bar Harbor, Maine), and fed a western diet from the age of 12 to 20 weeks. Next, they were divided into the following diet/treatment groups.
# Measurement of skin discoloration: An oval shape was drawn on the photographs taken from mice at the age of 36 weeks. This oval space covered the back area of mice from the neck to the tail ([…]). Using the free drawing pen and measure/analyze tool, the white area was measured for each mouse. The ratio of white area to the total area was then calculated, and the standard deviations for all the animals in each cage (N=5) was calculated and plotted.
# Measurement of wounds and wound healing: For mouse skin wound analysis, the number of visible wounds in placebo-vs. BPD-treated mice (N=5 in each group), were counted manually. Then, averages of the wounds for each group were determined, as were the ratios of wounds in BPD-vs placebo-treated mice. Those ratios were then converted to percentages, expressed as “% wound healing.”
# [4] = western diet, BPD 1-10 mpk, D-PDMP 10 mpk, 20-36 weeks
smiles,measurement,setting,value
"CCCCCCCCCC(=O)N[C@H](CN1CCOCC1)[C@H](O)c1ccccc1 [D-PDMP, D-threo-1-phenyl-2-decanoylamino-3-morpholino-1-propanol]",mRNA mass of glucosylceramide synthase in skin,[1],No statistical difference
same,mRNA mass of LacCer synthase (GalT-V) in skin,LacCer synthase (GalT-V),No statistical difference
same,mass of GalT-V in skin tissue,B1-4GalT-V,showed a decrease
same,lactosylceramide d18:1/22:0 and d18:1/24:1 in skin,[2]; 1 mpk BPD or 10 mpk D-PDMP,restored to normal
same,levels of fatty acid molecular species of skin ceramide,"[2]; 1 mpk BPD or 10 mpk D-PDMP, western diet lowered them ~3-fold",increased them to normal levels
same,d18:1/24:1 monohexosylceramide in skin,"[2]; 1 mpk BPD vs 10 mpk D-PDMP, western diet lowered it ~3-fold","but not 10 mpk D-PDMP, completely restored"
same,d18:1/26:1 ceramide in skin,[2]; 10 mpk D-PDMP,did not reverse the loss
same,lactosylceramide d18:1/16:0 in skin,"[2]; 36 weeks, western diet raised it 3-fold",modestly decreased
same,18:1/24:0 monohexosylceramide in skin,"[2]; printed: 1 mpk D-PDMP as efficacious as 10 mpk BPD, western diet lowered it ~1.5-fold",reversed
same,glucosylceramide level in skin,[2]; [4],also increased
same,total ceramide level in skin,[2]; [4],also increased
same,total lactosylceramide level in skin,"[2]; western diet, BPD or D-PDMP",decreased
same,% wound healing,"[3]; 10 mpk D-PDMP daily oral gavage, age 20-36 weeks, western diet",83%
same,"hair discoloration, hair loss, and skin inflammation","[3]; 10 mpk unbound D-PDMP with western diet, 20 to 36 weeks",also interfered with these pathologies
